Laboratory results reported in patent publication US20230250066A1, “HERBICIDAL CINNOLINE DERIVATIVES” (SYNGENTA CROP PROTECTION AG, priority 2020, published 2023).

Tests used:
Format in all cases: in vivo
[1] = system: Echinochloa crus-galli (ECHCG); experiment: Pre-emergence herbicidal test; conditions: 1000 g/ha, evaluated after 13 days
[2] = system: Abutilon theophrasti (ABUTH); experiment: Pre-emergence herbicidal test; conditions: 1000 g/ha, evaluated after 13 days
[3] = system: Amaranthus retoflexus (AMARE); experiment: Pre-emergence herbicidal test; conditions: 1000 g/ha, evaluated after 13 days
[4] = system: Ipomoea hederacea (IPOHE); experiment: Pre-emergence herbicidal test; conditions: 1000 g/ha, evaluated after 13 days
[5] = system: Zea mays (ZEAMX); experiment: Post-emergence herbicidal test; conditions: 1000 g/ha unless otherwise stated, evaluated after 13 days
Summary of the method: (§1)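 Pots sown in standard soil were kept in a glasshouse (24° C./16° C. day/night, 14 hours light, 65% humidity) and sprayed at 1000 g/ha unless otherwise stated in acetone/water (50:50) with 0.5% Tween 20. Percentage damage was scored after 13 days on a 0–5 scale.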

[6] = system: Ipomoea hederacea (IPOHE); experiment: Post-emergence herbicidal test; conditions: 1000 g/ha unless otherwise stated, evaluated after 13 days
Summary of the method: as §1

[7] = system: Echinochloa crus-galli (ECHCG); experiment: Post-emergence herbicidal test; conditions: 1000 g/ha unless otherwise stated, evaluated after 13 days
Summary of the method: as §1

[8] = system: Abutilon theophrasti (ABUTH); experiment: Post-emergence herbicidal test; conditions: 1000 g/ha unless otherwise stated, evaluated after 13 days
Summary of the method: as §1

[9] = system: Setaria faberi (SETFA); experiment: Post-emergence herbicidal test; conditions: 1000 g/ha unless otherwise stated, evaluated after 13 days
Summary of the method: as §1

[10] = system: Amaranthus retoflexus (AMARE); experiment: Post-emergence herbicidal test; conditions: 1000 g/ha unless otherwise stated, evaluated after 13 days
Summary of the method: as §1

[11] = system: Setaria faberi (SETFA); experiment: Pre-emergence herbicidal test; conditions: 1000 g/ha, evaluated after 13 days
[12] = system: Zea mays (ZEAMX); experiment: Pre-emergence herbicidal test; conditions: 1000 g/ha, evaluated after 13 days

SMILES | percentage damage caused to the plant, five-point scale, ECHCG [1] | percentage damage caused to the plant, five-point scale, ABUTH [2] | percentage damage caused to the plant, five-point scale, AMARE [3] | percentage damage caused to the plant, five-point scale, IPOHE [4] | percentage damage caused to the plant, ZEAMX (five-point scale) [5] | percentage damage caused to the plant, IPOHE (five-point scale) [6] | percentage damage caused to the plant, ECHCG (five-point scale) [7] | percentage damage caused to the plant, ABUTH (five-point scale) [8] | percentage damage caused to the plant, SETFA (five-point scale) [9] | percentage damage caused to the plant, AMARE (five-point scale) [10] | percentage damage caused to the plant, five-point scale, SETFA [11] | percentage damage caused to the plant, five-point scale, ZEAMX [12]
CCOC(=O)c1nn(-c2ccc(OC(F)(F)F)cc2)c2cc(C#N)cc(SC)c2c1=O [Compound P55, ethyl 7-cyano-5-methylsulfanyl-4-oxo-1-[4-(trifluoromethoxy)phenyl]cinnoline-3-carboxylate] | 0 (0=0%) | 1 (1=10-20%) | 0 (0=0%) | 0 (0=0%) | 0 (0=0%) | 0 (0=0%) | 0 (0=0%) | 0 (0=0%) | 0 (0=0%) | 0 (0=0%) | 0 (0=0%) | 0 (0=0%)
CCCCCOC(=O)c1nn(-c2ccc(OC(F)(F)F)cc2)c2cccc(S(C)(=O)=O)c2c1=O [Compound P75, penyl 5-methylsulfonyl-4-oxo-1-[4-(trifluoromethoxy)phenyl]cinnoline-3-carboxylate] | 4 (4=61-80%) | 0 (0=0%) | 0 (0=0%) | 0 (0=0%) | 0 (0=0%) | 0 (0=0%) | 3 (3=41-60%) | 0 (0=0%) | 4 (4=61-80%) | 0 (0=0%) | 4 (4=61-80%) | 1 (1=10-20%)
CS(=O)(=O)c1cccc2c1c(=O)c(C(=O)O)nn2-c1ccc(Cl)cc1Cl [Compound P43, 1-(2,4-dichlorophenyl)-5-methylsulfonyl-4-oxo-cinnoline-3-carboxylic acid] | 2 (2=21-40%) | 0 (0=0%) | 0 (0=0%) | 1 (1=10-20%) | 1 (1=10-20%) | 1 (1=10-20%) | 3 (3=41-60%) | 2 (2=21-40%) | 4 (4=61-80%) | 1 (1=10-20%) | 4 (4=61-80%) | 0 (0=0%)
CCOC(=O)c1nn(-c2ccc(OC(F)(F)F)cc2)c2cccc([S+]([O-])CC(F)(F)F)c2c1=O (stereo not drawn) [Compound P38, ethyl 4-oxo-5-(2,2,2-trifluoroethylsulfinyl)-1-[4-(trifluoromethoxy)phenyl]cinnoline-3-carboxylate] | 0 (0=0%) | 0 (0=0%) | 0 (0=0%) | 0 (0=0%) | 1 (1=10-20%) | 0 (0=0%) | 0 (0=0%) | 1 (1=10-20%) | 1 (1=10-20%) | 1 (1=10-20%) | 0 (0=0%) | 0 (0=0%)
CC(C)Cc1cc(S(C)(=O)=O)c2c(=O)c(C(=O)O)nn(-c3ccc(OC(F)(F)F)cc3)c2c1 [Compound P14, 7-isobutyl-5-methylsulfonyl-4-oxo-1-[4-(trifluoromethoxy)phenyl]cinnoline-3-carboxylic acid] | 1 (1=10-20%) | 1 (1=10-20%) | 1 (1=10-20%) | 0 (0=0%) | 0 (0=0%) | 0 (0=0%) | 0 (0=0%) | 1 (1=10-20%) | 0 (0=0%) | 1 (1=10-20%) | 1 (1=10-20%) | 1 (1=10-20%)
CCOC(=O)c1nn(-c2ccc(OC(F)(F)F)cc2)c2cc(F)cc(SC)c2c1=O [Compound P54, ethyl 7-fluoro-5-methylsulfanyl-4-oxo-1-[4-(trifluoromethoxy)phenyl]cinnoline-3-carboxylate] | 2 (2=21-40%) | 1 (1=10-20%) | 1 (1=10-20%) | 0 (0=0%) | 1 (1=10-20%) | 1 (1=10-20%) | 0 (0=0%) | 1 (1=10-20%) | 0 (0=0%) | 2 (2=21-40%) | 2 (2=21-40%) | 0 (0=0%)
CCOC(=O)c1nn(-c2ccc(OC(F)(F)F)cc2)c2ccc(F)c(S(C)(=O)=O)c2c1=O [Compound P51, ethyl 6-fluoro-5-methylsulfonyl-4-oxo-1-[4-(trifluoromethoxy)phenyl]cinnoline-3-carboxylate] | 0 (0=0%) | 0 (0=0%) | 0 (0=0%) | 0 (0=0%) | 0 (0=0%) | 0 (0=0%) | 0 (0=0%) | 0 (0=0%) | 0 (0=0%) | 0 (0=0%) | 0 (0=0%) | 0 (0=0%)
CCOC(=O)c1nn(-c2ccc(OC(F)(F)F)cc2)c2ccc(OC)c(S(C)(=O)=O)c2c1=O [Compound P49, ethyl 6-methoxy-5-methylsulfonyl-4-oxo-1-[4-(trifluoromethoxy)phenyl]cinnoline-3-carboxylate] | 0 (0=0%) | 0 (0=0%) | 0 (0=0%) | 0 (0=0%) | 0 (0=0%) | 1 (1=10-20%) | 1 (1=10-20%) | 0 (0=0%) | 1 (1=10-20%) | 0 (0=0%) | 0 (0=0%) | 0 (0=0%)
CCOC(=O)c1nn(-c2ccc(OC(F)(F)F)cc2)c2cc(CC(C)C)cc(S(C)(=O)=O)c2c1=O [Compound P46, ethyl 7-isobutyl-5-methysulfonyl-4-oxo-1-[4-(trifluoromethoxy)phenyl]cinnoline-3-carboxylate] | 0 (0=0%) | 1 (1=10-20%) | 0 (0=0%) | 0 (0=0%) | 1 (1=10-20%) | 1 (1=10-20%) | 1 (1=10-20%) | 1 (1=10-20%) | 1 (1=10-20%) | 0 (0=0%) | 0 (0=0%) | 2 (2=21-40%)
